In US7897625B2, “Carbamoylbenzotriazole derivatives as inhibitors of lipases and phospholipases” (Sanofi-Aventis, priority 2005, dated 2011):

Target: T1, Endothelial lipase (Homo sapiens, UniProt Q9Y5X9)
T1 construct: made in house; host or cells: CHO, HEK293 (recombinant cell lines; concentrated conditioned medium used as enzyme solution)
T1 sequence (Q9Y5X9 21-500): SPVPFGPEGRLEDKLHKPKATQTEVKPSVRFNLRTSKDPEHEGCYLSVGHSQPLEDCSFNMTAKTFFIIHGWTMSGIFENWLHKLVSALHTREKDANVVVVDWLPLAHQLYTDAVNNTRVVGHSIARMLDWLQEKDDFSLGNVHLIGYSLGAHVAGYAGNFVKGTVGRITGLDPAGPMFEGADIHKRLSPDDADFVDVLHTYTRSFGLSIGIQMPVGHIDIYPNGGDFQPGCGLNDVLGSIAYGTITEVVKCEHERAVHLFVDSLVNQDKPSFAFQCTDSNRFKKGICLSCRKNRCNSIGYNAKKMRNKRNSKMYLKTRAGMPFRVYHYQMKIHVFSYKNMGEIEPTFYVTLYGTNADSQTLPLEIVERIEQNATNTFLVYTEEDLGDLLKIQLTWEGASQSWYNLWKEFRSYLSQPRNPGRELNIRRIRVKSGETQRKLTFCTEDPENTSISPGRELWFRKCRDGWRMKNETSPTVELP
Assay: EL inhibition assay
Type: biochemical
Settings: values marked * are IC50 values of a mixture of the indicated regioisomers; 37° C., 60 minutes, Bodipy phospholipid substrate
Description: The activity of the compounds of the invention of the formula I was tested in the following enzyme assay system: […]
Endothelial lipase is released as secretory protein in high concentration into cell culture medium (conditioned medium) by recombinant cell lines (CHO, HEK293). This is employed as enzyme solution after concentration.
The phospholipase-specific substrate 1,2-bis(4,4-difluoro-5,7-dimethyl-4-bora-3a,4a-diaza-s-indacene-3-undecanoyl)-sn-glycero-3-phosphocholine, (manufacturer Molecular Probes) is used to characterize the enzymatic activity of endothelial lipase and the effect of inhibitors. Hydrolysis of the A1 ester linkage of this phospholipid by the enzyme liberates the fluorescent dye Bodipy which can be detected after separation by thin-layer chromatography on an HPTLC plate (silica gel 60, Merck) or directly in the reaction vessel by measuring the fluorescence.
The substrate solution is prepared by taking up 100 μg of 1,2-bis(4,4-difluoro-5,7-dimethyl-4-bora-3a,4a-diaza-s-indacene-3-undecanoyl)-sn-glycero-3-phospho-choline (manufacturer Molecular Probes), 2.4 mg of tripalmitin (Sigma) and 7.9 mg of DOP—choline (1,2-dioleoyl-sn-glycero-3-phosphocholine) in 393 μl of chloroform and then transferring 157 μl into a fresh reaction vessel. After evaporation of the solvent, the lipid mixture is dissolved in 4 ml of 200 mM TRIS-HCl, 150 mM sodium chloride, pH=7.4, by sonication twice. The subsequent enzymic reaction takes place at 37° C. for 60 minutes. For this purpose, 45 μl of the substrate solution are incubated with 1 μl of inhibitor of appropriate concentration (dissolved in DMSO, pure DMSO solution is used as control) and 5 μl of enzyme solution (conditioned medium). Then 3 μl of the assay mixture are loaded onto an HPTLC plate (silica gel 60, Merck), and the liberated fluorescent dye is separated for detection with an eluent (diethyl ether:petroleum benzene:acetic acid [78:22:1]). After evaporation of the eluent, the plate is read in a fluorescence scanner. An increased release of the fluorescent dye in the uninhibited reaction is to be observed as a measure of the enzymic activity.
The enzymatic activity is reduced as a function of the inhibitor concentration used, and the inhibitor concentration at which a half-maximum enzymic activity is observed is called IC50.

Row | Structure (SMILES) | IC50 [nM]
1 | Cc1cccc(CNC(=O)n2nnc3ccccc32)c1 [Example 1] | 20
2 | Cc1ccsc1CNC(=O)n1nnc2ccccc21 [Example 9] | 80
3 | N#Cc1ccc2sc(CNC(=O)n3nnc4ccccc43)cc2c1 [Example 10] | 510

Continued, values first:

Row | IC50 [nM] | Structure (SMILES)
4 | 520 | O=C(NCc1ccc(-c2cccs2)s1)n1nnc2ccccc21 [Example 15]
5 | 31 | C[C@@H](NC(=O)n1nnc2ccccc21)c1ccccc1 [Example 23]
6 | 440 | O=C(NCc1ccc(Cl)cc1)n1nnc2ccccc21 [Example 28]
7 | 710 | C[C@H](NC(=O)n1nnc2ccccc21)c1ccccc1 [Example 36]
